Assay results: ChEMBL document CHEMBL3243934, “Synthesis and antiinflammatory activity of cis-4,5,6,7,8,8a,9-hexahydro-alpha-methyl-5H-fluorene-2-acetic acid” (1977)

Experiments:
Rattus norvegicus = assay: Antiinflammatory activity in rat assessed as inhibition of carrageenan-induced paw edema at 150 mg/kg; format: functional
Oryctolagus cuniculus = assay: Antiinflammatory activity in rabbit assessed as inhibition of edema at 200 ug per site by reversed passive arthus test; format: functional

## CC(C(=O)O)c1ccc2c(c1)C[C@H]1CCCC[C@@H]21 (stereo not given in full)
Rattus norvegicus
  inhibition in vivo at 150 mg/kg: 63%
Oryctolagus cuniculus
  inhibition (INH): 55%

## CC(C(=O)O)c1ccc2c(c1)Cc1ccccc1-2 (stereo not given) [CICLOPROFEN]
Rattus norvegicus
  inhibition in vivo at 150 mg/kg: 66%
Oryctolagus cuniculus
  inhibition (INH): 36%

## CC(C)Cc1ccc(C(C)C(=O)O)cc1 (stereo not given) [IBUPROFEN]
Rattus norvegicus
  inhibition in vivo at 150 mg/kg: 56%
Oryctolagus cuniculus
  inhibition (INH): 54%

## COc1ccc2c(c1)c(CC(=O)O)c(C)n2C(=O)c1ccc(Cl)cc1 [INDOMETHACIN]
Oryctolagus cuniculus
  inhibition (INH): 57%

## COc1ccc2cc([C@H](C)C(=O)O)ccc2c1 [NAPROXEN]
Oryctolagus cuniculus
  inhibition (INH): 55%

## CCCCC1C(=O)N(c2ccccc2)N(c2ccccc2)C1=O [PHENYLBUTAZONE]
Rattus norvegicus
  inhibition in vivo at 150 mg/kg: 59%
Oryctolagus cuniculus
  inhibition (INH): 44%
